# In patent publication US20140249097A1, “Inhibition of HIF-1 activation for Anti-Tumor and Anti-Inflammatory responses” (priority 2010, published 2014):
# Like-named read-outs stand apart in the source and are kept apart here. Peptide text beside a SMILES is read from it. * marks the point of attachment. Cbz = O=C(OCc1ccccc1)*
# How the values were obtained:
# nitric oxide = experiment: Flow cytometry of intracellular nitric oxide (DAF-FM) in 4T1ODD-luc cells; assay type: cell-based, mouse; settings: 10 μg/ml 1400W or 15 μM EGCG with 1 μg/ml doxorubicin, 48 hours
# Procedure: To detect intracellular nitric oxide levels, 1×10^6 4 T1ODD-luc cells were plated per 10-cm cell culture dish with 8 ml of cell culture medium. Doxorubicin (1 μg/ml and 5 μg/ml) or an equal volume of control solvent was added into the cell culture medium the next day and treatment continued for 48 hours. […] Equal amounts of solvent were added for the control group. To quantify intracellular nitric oxide, a single cell suspension was made after trypsinization. 2 ml of 5 uM nitric oxide-specific probe DAF-FM diacetate (4-amino-5-methylamino-2′,7′-difluorofluorescein diacetate) (Invitrogen) were incubated with each cell sample at room temperature in darkness for 30 minutes. The cells were washed with PBS and centrifuged to remove the excess DAF-FM diacetate probe. The cells were resuspended into 500 ul of phenol-free DMEM and incubated for another 20 minutes for complete intracellular deacetylation of the probe. The mean fluorescence intensity of the deacetylated DAF-FM reacted with nitric oxide was quantified by FACSCalibur flow cytometer in FITC channel (Becton Dickinson, Franklin Lakes, N.J., United States of America).
# 4T1ODD-luc cells = experiment: Cell Titer-Glo cell viability assay; settings: 10 μg/ml 1400W or 15 μM EGCG with 1 μg/ml doxorubicin, to day 3
# From the text: Cell viability was quantified by Cell Titer-Glo luminescent cell viability assay (Promega, Madison, Wis., United States of America) daily until day 3. The daily cell viability was normalized to the initial cell viability on day 0 within each group.
# STAT1 = experiment: Western blotting of STAT1 and phospho-STAT1 in 4T1ODD-luc cells; assay type: cell-based, mouse; settings: 48 hours post-treatment
# Procedure: (§1) Cell nuclear proteins were extracted using the NucBuster protein extraction kit (Novagen, Gibbstown, N.J., United States of America). Total cell lysates or cell nuclear extractions were quantified using a protein assay reagent (Bio-Rad). Equal amounts of protein sample were separated by Bis-HCl gel (Bio-Rad) and transferred to a […] Immun-Blot PVDF membrane (Bio-Rad).
# iNOS = experiment: Western blotting of iNOS in 4T1ODD-luc cells; assay type: cell-based, mouse; settings: for inhibition of iNOS expression in doxorubicin-treated cells / doxorubicin-induced iNOS upregulation: with doxorubicin; for inhibition of iNOS expression in doxorubicin-treated cells: 24 h; for doxorubicin-induced iNOS upregulation: 48 h; for basal level of iNOS expression: without doxorubicin, 24 h and 48 h, 10 μg/ml 1400W or 15 μM EGCG
# Procedure: as §1
# C533S-ODD-luc = C533S-ODD-luc reporter in 4T1 cells in vitro; assay type: cell-based, murine
# HIF-1α [1] = assay type: cell-based, murine
# HIF-1α [2] = experiment: Western blotting of HIF-1α in MCF-7 cells; assay type: cell-based, human; settings: MCF-7 cells, post-treatment day 3
# Procedure: as §1
# HIF-1α [3] = experiment: Western blotting of HIF-1α in 4T1ODD-luc cells; assay type: cell-based, mouse; settings: 4T1ODD-luc cells, post-treatment day 2
# Procedure: as §1
# B16F10 (murine melanoma) = experiment: Tumor growth delay, radiotherapy plus L-NAME, B16F10; assay type: in vivo, mice; settings: B16F10 tumors, 3×6 Gy, L-NAME in drinking water
# From the text: (§2) Female NIH Swiss nude mice, C57BL/6 mice were purchased from the National Cancer Institute (NCI; Fredrick, Md., United States of America). Mice with a genetic disruption of the inducible […] gene (C57BL/6 iNOS^−/−) were obtained from the Jackson Laboratory (Bar Harbor, Me., United States of America). Female BALB/c mice were obtained from Charles River Laboratories (Raleigh, N.C., United States of America). Animals were maintained and cared for in accordance with the Duke University Institutional Animal Care and Use Committee guidelines. For tumor implantation, 4T1 tumors were grown in nude mice or in syngeneic BALB/c mice, and B16F10 melanoma in syngeneic C57BL/6 or iNOS^−/− mice. About 5×10^5 wild type- or luciferase reporter gene-transfected tumor cells were injected subcutaneously (s.c.) into mice in 50 μl of PBS solution in the hind legs of ketamine/xylazine-anesthetized mice. When the tumors reached 6-8 mm in diameter, mice were randomly assigned to experimental groups. To image the luciferase activity, single dose of 6 Gy X-ray was given to the tumor on the right leg and this day was set as day 0. The luciferase activity was imaged everyday or every other day for ten days. For the tumor growth delay assay, radiotherapy was employed in its clinical mode: tumors were treated with 3 fractions of 6 Gy every other day from day 0.
# tumor vasculature = experiment: CD31 staining of tumor vasculature; assay type: in vivo, mice; settings: L-NAME in conjunction with radiotherapy, tumors excised day 10, 4T1 and B16F10
# Procedure: Vessel staining was performed on tumor cryoslices by using the VECTASTAIN® ABC and the NOVARED™ kits from Vector Laboratories (Burlingame, Calif., United States of America), according to the manufacturer's protocol. The primary anti-CD31 antibody (Santa Cruz Biotechnology, Santa Cruz, Calif.) was labeled with a secondary biotinylated anti-rabbit antibody (Jackson ImmunoResearch Labs, Inc.). Slices were counterstained using Harris' hematoxilin. Vascular density was determined by counting CD31-positive structures in 5 random fields per tumor.
# [4] = tested on: 4T1 (murine mammary adenocarcinoma); experiment: Tumor growth delay, radiotherapy plus L-NAME, 4T1; assay type: in vivo, mice; settings: 4T1 tumors, 3×6 Gy, L-NAME in drinking water
# From the text: as §2
structure (smiles),measurement,setting,value
"CC(=N)NCc1cccc(CN)c1 [1400W, N-(3-(aminomethyl)benzyl)acetamidine]",doxorubicin-induced increase of intracellular NO,nitric oxide,significantly suppressed the doxorubicin-induced increase of intracellular NO
same,effect of combination on cytotoxicity of doxorubicin (cell viability),4T1ODD-luc cells,did not attenuate the cytotoxicity of doxorubicin
same,doxorubicin-induced upregulation of STAT1 expression and activation,STAT1,potently suppressed the doxorubicin-induced upregulation of STAT1 expression and activation
same,inhibition of iNOS expression in doxorubicin-treated cells,iNOS,not obvious
same,doxorubicin-induced iNOS upregulation,iNOS,successfully suppressed the doxorubicin-induced iNOS upregulation
same,basal level of iNOS expression,iNOS,suppressed the basal level of iNOS expression
[Cl-].[Cl-].[Co+2] [CoCl2],C533S-ODD-luc induction,C533S-ODD-luc,"significant inductions, similar to wild-type"
same,luminescence arising from ODD-luc reporter gene expression,HIF-1α [1],rose significantly
"O=C(O[C@@H]1Cc2c(O)cc(O)cc2O[C@@H]1c1cc(O)c(O)c(O)c1)c1cc(O)c(O)c(O)c1 [EGCG, epigallocatechin gallate]",doxorubicin-induced increase of intracellular NO,nitric oxide,significantly suppressed the doxorubicin-induced increase of intracellular NO
same,doxorubicin-induced normoxic HIF-1α accumulation,HIF-1α [2],successfully suppressed the doxorubicin-induced normoxic HIF-1α accumulation
same,effect of combination on cytotoxicity of doxorubicin (cell viability),4T1ODD-luc cells,did not attenuate the cytotoxicity of doxorubicin
same,doxorubicin-induced normoxic HIF-1α accumulation,HIF-1α [3],successfully suppressed the doxorubicin-induced normoxic HIF-1α accumulation
same,doxorubicin-induced upregulation of STAT1 expression and activation,STAT1,potently suppressed the doxorubicin-induced upregulation of STAT1 expression and activation
same,inhibition of iNOS expression in doxorubicin-treated cells,iNOS,not obvious
same,doxorubicin-induced iNOS upregulation,iNOS,successfully suppressed the doxorubicin-induced iNOS upregulation
same,basal level of iNOS expression,iNOS,suppressed the basal level of iNOS expression
"N[C@@H](CCC(=O)N[C@@H](CSN=O)C(=O)NCC(=O)O)C(=O)O [GSNO, S-nitrosoglutathione]",C533S-ODD-luc expression induced by GSNO,"C533S-ODD-luc; 4T1 cells, GSNO 1 mM",almost absent
"COC(=O)[C@@H](N)CCCNC(=N)N[N+](=O)[O-] [L-NAME, Nω-nitro-L-arginine methyl ester]","tumor growth delay, therapeutic efficacy of radiotherapy with L-NAME",B16F10 (murine melanoma),significantly enhanced the therapeutic efficacy of radiotherapy
same,tumor vasculature (CD31+ vascular density),tumor vasculature,significantly reduced tumor vasculature
same,"tumor growth delay, therapeutic efficacy of radiotherapy with L-NAME",[4],significantly enhanced the therapeutic efficacy of radiotherapy
CC(C)C[C@@H](C=O)NC(=O)[C@H](CC(C)C)NC(=O)[C@H](CC(C)C)NC(=O)OCc1ccccc1 [MG132] (Cbz-Leu-Leu-Leu-aldehyde),luminescence arising from ODD-luc reporter gene expression,"HIF-1α [1]; 4T1 cells, CoCl2 240 μM for 12 hrs, MG132 10 μM for 12 hrs, vs background",rose significantly
"CC1(C)N([O])C(c2ccc(C(=O)[O-])cc2)=[N+]([O-])C1(C)C.[K+] [carboxy-PTIO, potassium 2-(4-carboxyphenyl)-4,4,5,5-tetramethylimidazoline-1-oxyl-3-oxide]",effect on HIF-1α activation (ODD-luc) by GSNO,HIF-1α [1],effectively suppressed HIF-1α activation by GSNO
